Patent publication US12617783B2, “Heterocyclic GLP-1R agonists” (BIOMEA FUSION, INC., priority 2024, dated 2026)

molecular target: T1, human GLP-1R (Homo sapiens, UniProt P43220); test: GLP-1R cAMP assay (Example B1a, HTRF, 30 min at room temperature); type: cell-based; details: cAMP accumulation in HEK293 expressing human GLP-1R, no BETP, 30 min room temperature (Method B1a, compounds ID 1-609), Table 1; read-out: EC50
T1 construct: host or cells: HEK293
Procedure, shortened: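 Competitive HTRF read-out of cAMP after 30 min room-temperature stimulation, BETP absent, of human GLP-1R-HEK293 cells (1,000/well) in HEPES buffer with 500 μM IBMX and 0.1% BSA. Activation normalised to GLP-1(7-37) positive control. EC50 from 4-parameter non-linear regression.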

T1 sequence (P43220 24-463): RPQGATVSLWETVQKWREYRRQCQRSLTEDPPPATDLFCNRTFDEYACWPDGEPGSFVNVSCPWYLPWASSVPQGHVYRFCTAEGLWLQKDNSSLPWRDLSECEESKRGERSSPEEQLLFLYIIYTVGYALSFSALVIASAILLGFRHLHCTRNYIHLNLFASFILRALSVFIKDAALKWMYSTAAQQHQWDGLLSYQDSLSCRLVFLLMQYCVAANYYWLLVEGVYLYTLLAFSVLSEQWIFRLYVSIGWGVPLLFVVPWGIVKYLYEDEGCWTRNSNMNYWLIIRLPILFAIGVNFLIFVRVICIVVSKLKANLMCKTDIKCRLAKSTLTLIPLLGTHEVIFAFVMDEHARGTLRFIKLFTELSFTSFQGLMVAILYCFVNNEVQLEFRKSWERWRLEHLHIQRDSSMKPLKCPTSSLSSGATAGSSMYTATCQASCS

| EC50 [µM] | Structure (SMILES) |
| --- | --- |
| 10.4 | Cc1cc(-n2nc3c(c2-n2ccn(-c4ccc5c(cnn5C)c4F)c2=O)[C@@H]2CCC[C@H](C3)N2S(=O)(=O)c2cc3cc(C4CCOCC4)ccc3n2[C@@]2(c3noc(=O)[nH]3)C[C@@H]2C)cc(C)c1F [Compound 533, 3-[(1S,2S)-1-[2-[[(1S,8R)-4-(4-fluoro-3,5-dimethyl-phenyl)-3-[3-(4-fluoro-1-methyl-indazol-5-yl)-2-oxo-imidazol-1-yl]-4,5,12-triazatricyclo[6.3.1.02,6]dodeca-2,5-dien-12-yl]sulfonyl]-5-tetrahydropyran-4-yl-indol-1-yl]-2-methyl-cyclopropyl]-4H-1,2,4-oxadiazol-5-one] |
| > 10 | Cc1cc(-n2nc3c(c2-c2nnc(-c4ccc5c(cnn5C)c4F)o2)[C@H](C)N(C(=O)c2cc4cc([C@H]5CCOC(C)(C)C5)ccc4n2[C@@]2(c4noc(=O)[nH]4)C[C@@H]2C)CC3)cc(C)c1F [Compound 5, 3-((1S,2S)-1-(5-((S)-2,2-dimethyltetrahydro-2H-pyran-4-yl)-2-((S)-3-(5-(4-fluoro-1-methyl-1H-indazol-5-yl)-1,3,4-oxadiazol-2-yl)-2-(4-fluoro-3,5-dimethylphenyl)-4-methyl-4,5,6,7-tetrahydro-2H-pyrazolo[4,3-c]pyridine-5-carbonyl)-1H-indol-1-yl)-2-methylcyclopropyl)-1,2,4-oxadiazol-5 (4H)-one] |
| 0.134 | Cc1cc(-n2nc3c(c2-n2ccn(-c4ccc5c(cnn5C)c4F)c2=O)[C@@H]2CC[C@H](C3)N2C(=O)c2cc3cc([C@H]4CCOC5(CCC5)C4)ccc3n2[C@@]2(c3noc(=O)[nH]3)C[C@@H]2C)cc(C)c1F [Compound 426, 3-((1S,2S)-1-(2-((4S,7R)-3-(3-(4-fluoro-1-methyl-1H-indazol-5-yl)-2-oxo-2,3-dihydro-1H-imidazol-1-yl)-2-(4-fluoro-3,5-dimethylphenyl)-2,4,5,6,7,8-hexahydro-4,7-epiminocyclohepta [c]pyrazole-9-carbonyl)-5-((S)-5-oxaspiro[3.5]nonan-8-yl)-1H-indol-1-yl)-2-methylcyclopropyl)-1,2,4-oxadiazol-5(4H)-one] |
| 0.641 | Cc1cc(-n2nc3c(c2-n2ccn(-c4ccc5c(cnn5C)c4F)c2=O)[C@@H]2CC[C@H](C3)N2C(=O)c2cc3cc([C@H]4CCOC(C)(C)C4)ccc3n2[C@@]2(CNC(=O)CO)C[C@@H]2C)cc(C)c1F [Compound 241, N-[[(1S,2S)-1-[5-[(4S)-2,2-dimethyltetrahydropyran-4-yl]-2-[(1S,8R)-4-(4-fluoro-3,5-dimethyl-phenyl)-3-[3-(4-fluoro-1-methyl-indazol-5-yl)-2-oxo-imidazol-1-yl]-4,5,11-triazatricyclo[6.2.1.02,6]undeca-2,5-diene-11-carbonyl]indol-1-yl]-2-methyl-cyclopropyl]methyl]-2-hydroxy-acetamide] |
| 0.551 | Cc1cc(-n2nc3c(c2-n2ccn(-c4ccc(C(N)=O)c(F)c4)c2=O)[C@@H]2CC[C@H](C3)N2C(=O)c2cc3cc([C@H]4CCOC(C)(C)C4)ccc3n2[C@@]2(c3noc(=O)[nH]3)C[C@@H]2C)cc(C)c1F [Compound 412, 4-[3-[(1S,8R)-11-[5-[(4S)-2,2-dimethyltetrahydropyran-4-yl]-1-[(1S,2S)-2-methyl-1-(5-oxo-4H-1,2,4-oxadiazol-3-yl)cyclopropyl]indole-2-carbonyl]-4-(4-fluoro-3,5-dimethyl-phenyl)-4,5,11-triazatricyclo[6.2.1.02,6]undeca-2,5-dien-3-yl]-2-oxo-imidazol-1-yl]-2-fluoro-benzamide] |
| > 10 | Cc1cc(-n2nc3c(c2-n2ccn(-c4ccc5c(cnn5C)c4F)c2=O)[C@@H]2CC[C@H](C3)N2C(=O)c2cc3cc([C@H]4CCOC(C)(C)C4)ccc3n2[C@@]2(C(=O)NS(C)(=O)=O)C[C@@H]2C)cc(C)c1F [Compound 201, cis-(1S,2S)-1-[5-[(4S)-2,2-dimethyltetrahydropyran-4-yl]-2-[(1S,8R)-4-(4-fluoro-3,5-dimethyl-phenyl)-3-[3-(4-fluoro-1-methyl-indazol-5-yl)-2-oxo-imidazol-1-yl]-4,5,11-triazatricyclo[6.2.1.02,6]undeca-2,5-diene-11-carbonyl]indol-1-yl]-2-methyl-N-methylsulfonyl-cyclopropanecarboxamide] |
| 0.206 | Cc1cc(-n2nc3c(c2-n2ccn(-c4ccc5c(cnn5C)c4C)c2=O)[C@@H]2CC[C@H](C3)N2C(=O)c2cc3cc([C@H]4CCOC(C)(C)C4)ccc3n2[C@@]2(c3noc(=O)[nH]3)C[C@@H]2C)cc(C)c1F [Compound 305, 3-((1S,2S)-1-(2-((45,7R)-3-(3-(1,4-dimethyl-1H-indazol-5-yl)-2-oxo-2,3-dihydro-1H-imidazol-1-yl)-2-(4-fluoro-3,5-dimethylphenyl)-2,4,5,6,7,8-hexahydro-4,7-epiminocyclohepta [c]pyrazole-9-carbonyl)-5-((S)-2,2-dimethyltetrahydro-2H-pyran-4-yl)-1H-indol-1-yl)-2-methylcyclopropyl)-1,2,4-oxadiazol-5 (4H)-one] |
| 0.137 | Cc1cc(-n2nc3c(c2-n2ccn(-c4ccc5c(cnn5C)c4F)c2=O)[C@@H]2CC[C@H](C3)N2C(=O)c2cc3cc([C@H]4CCOC(C)(C)C4)ccc3n2[C@@]2(c3nnn[nH]3)C[C@@H]2C)cc(C)c1F [Compound 128, 1-((4S,7R)-9-(5-((S)-2,2-dimethyltetrahydro-2H-pyran-4-yl)-1-((1S,2S)-2-methyl-1-(1H-tetrazol-5-yl)cyclopropyl)-1H-indole-2-carbonyl)-2-(4-fluoro-3,5-dimethylphenyl)-2,4,5,6,7,8-hexahydro-4,7-epiminocyclohepta [c]pyrazol-3-yl)-3-(4-fluoro-1-methyl-1H-indazol-5-yl)-1H-imidazol-2 (3H)-one] |
| > 10 | Cc1cc(-n2nc3c(c2-n2ccn(-c4ccc5c(cnn5C)c4F)c2=O)[C@@H]2CC[C@H](C3)N2C(=O)c2cc3sc([C@@H]4CCOC(C)(C)C4)nc3n2[C@@]2(c3noc(=O)[nH]3)C[C@@H]2C)cc(C)c1F [Compound 307, 3-[(1S,2S)-1-[2-[(4R)-2,2-dimethyltetrahydropyran-4-yl]-5-[(1S,8R)-4-(4-fluoro-3,5-dimethyl-phenyl)-3-[3-(4-fluoro-1-methyl-indazol-5-yl)-2-oxo-imidazol-1-yl]-4,5,11-triazatricyclo[6.2.1.02,6]undeca-2,5-diene-11-carbonyl]pyrrolo[2,3-d]thiazol-4-yl]-2-methyl-cyclopropyl]-4H-1,2,4-oxadiazol-5-one] |
| > 10 | Cc1cc(-n2nc3c(c2-n2ccn(-c4ccc5c(cnn5C)c4F)c2=O)[C@@H]2CC[C@H](C3)N2C(=O)c2cc3cc([C@H]4CCOC(C)(C)C4)ccc3n2C2(c3noc(=O)[nH]3)CCC2)cc(C)c1F [Compound 134, 3-[1-[5-[(4S)-2,2-dimethyltetrahydropyran-4-yl]-2-[(1S,8R)-4-(4-fluoro-3,5-dimethyl-phenyl)-3-[3-(4-fluoro-1-methyl-indazol-5-yl)-2-oxo-imidazol-1-yl]-4,5,11-triazatricyclo[6.2.1.02,6]undeca-2,5-diene-11-carbonyl]indol-1-yl]cyclobutyl]-4H-1,2,4-oxadiazol-5-one] |
